Source: publication PMC10947113, “A Bivalent Activatable Fluorescent Probe for Screening and Intravital Imaging of Chemotherapy‐Induced Cancer Cell Death” (Angewandte Chemie (Weinheim an Der Bergstrasse, Germany), 2021)

System: breast cancer cells (MMTV-PyMT, MDA-MB231, MCF7)
Experiment: Dose-dependency study in breast cancer cell lines
Assay type: cell-based, mouse and human
Protocol: First, all drugs were tested in the 8 different cell lines to determine the percentages of Apotracker Red‐stained apoptotic cells compared to no treatment (Figure 3 c; Figure S8). […] From this screen, we decided to select 5 drugs with potent pro‐apoptotic response in breast cancer, the most diagnosed cancer worldwide.[25] […] From group 2, we selected cyclophosphamide, tamoxifen, and 5‐fluorouracil as pro‐apoptotic molecules. […] All 5 drugs were tested at multiple concentrations (from 1 to 100 μM) and with incubation times up to 48 h to examine whether drugs could block cell proliferation at late stages (Figures S9–S13).
Figure 4 Apotracker Red detects dose‐dependent chemotherapeutic‐induced apoptosis in mouse and human breast cancer cell lines. Cells were plated with 1 μM CV, treated with increasing concentrations (0, 1, 3, 10, 30 and 100 μM) of selected drugs for 48 h, and stained with Apotracker Red (150 nM) before data acquisition. Drugs: tamoxifen (beige), cisplatin (black), 5‐fluorouracil (green), gemcitabine (pink) and cyclophosphamide (red). Data presented as mean±SEM of 3 independent experiments.
Edinburgh. Human peripheral blood neutrophils were isolated as previously described.[3] Briefly, whole blood was drawn into tubes containing anti -coagulant 3.6% sodium citrate (final concentration: 0.4% (w/v)) and centrifuged at 350 g for 20 min at r.t. with lowest acceleration and no brake. Platelet-rich plasma was rem oved, and leukocytes separated from erythrocytes by 0.6% dextran sedimentation in saline for 30 min at r.t. […]
were centrifuged (300 g, 5 min, r.t.), washed once with PBS before addition of 0.05% Trypsin, 0.02% ethylenediaminetetraacetic acid (EDTA) in Hank’s balanced salt solution (HBSS) and incubation at 37°C for 5 min. […] Histograms and mean fluorescence intensities of apoptotic cells were measured on a 5L LSR flow cytometer under the following excitation/emission filters: Apotracker Red (561/610 nm), Annexin V-AF647 (647 /670 nm).
Data were acquired using the FACS Diva software and analysed using the FlowJo X software. […]

N.N.[Cl][Pt][Cl] [cisplatin]
percentages of Apotracker Red staining across all breast cancer cells, dose-dependency study (1 to 100 μM, 48 h, Apotracker Red 150 nM, 3 independent experiments): highest percentages of Apotracker Red staining | ratios of proliferation blockage, dose-dependency study (CellTrace Violet 1 μM, drugs 1 to 100 μM, up to 48 h): highest ratios of proliferation blockage
